What was measured:
[1] = tested on: differentiated L6-myotubes; assay: Glucose uptake screen (Biological example 1 of WO 2019/053427); assay type: cell-based; details: compound at 10 μM, activity relative to isoproterenol at 10 μM, read-out: Biological example 1 of WO 2019/053427 (GU)
Procedure, shortened: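 Uptake was read out as ^3H-2-deoxyglucose (50 nM, 10 min) radioactivity in NaOH lysates. Beforehand, overnight-starved, differentiated L6 myotubes received compound at 1×10^−5 M with ICI-118551 present for 1 h 40 min, followed by fresh agonist for a further 20 min in glucose-free medium.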

[2] = tested on: differentiated L6-myotubes; assay: cAMP production relative to isoprenaline (Biological example 2 of WO 2019/053427); assay type: cell-based; details: 0.25 h, compound at 10 μM, activity relative to isoproterenol at 10 μM
Procedure, shortened: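 Values are cAMP levels relative to isoprenaline at equal concentration (final 1×10^−5 M for both). Stimulation lasted 15 min in differentiated L6 myotubes, using HBSS buffer (pH 7.4) containing 1 mM IBMX, 5 mM HEPES and 1% BSA.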

Structure (SMILES)	Emax at 10 µM [1] [%]	Emax at 10 µM [2] [%]
CC(C)(C[C@H]1CC[C@H](N)CC1)NC[C@H](O)c1cccc(F)c1 [Compound 371, (R)-2-{1,1-dimethyl-2-[(1r,4R)-4-aminocyclohexyl]ethylamino}-1-(m-fluorophenyl)-1-ethanol]	> 75	< 25
COc1ccc(C[C@@H]2CC[C@H]([C@@H](O)c3cccc(F)c3)N2)cc1 [Compound 372, (S)-{(2R,5S)-5-[(p-methoxyphenyl)methyl]-2-pyrrolidinyl}(m-fluorophenyl)methanol]	> 75	< 25
COc1ccc(C[C@@H]2CC[C@H]([C@H](O)c3cccc(F)c3)N2)cc1 [Compound 373, (R)-{(2R,5S)-5-[(p-methoxyphenyl)methyl]-2-pyrrolidinyl}(m-fluorophenyl)methanol]	> 75	25 to 50
COc1ccc(C[C@H]2CC[C@H]([C@H](O)c3cccc(F)c3)N2)cc1 [Compound 374, (R)-{(2R,5R)-5-[(p-methoxyphenyl)methyl]-2-pyrrolidinyl}(m-fluorophenyl)methanol]	> 75	< 25
COc1ccc(C[C@H]2CC[C@H]([C@@H](O)c3cccc(F)c3)N2)cc1 [Compound 375, (S)-{(2R,5R)-5-[(p-methoxyphenyl)methyl]-2-pyrrolidinyl}(m-fluorophenyl)methanol]	> 75	< 25
Cc1ncccc1[C@@H](O)CNC(C)(C)C [Compound 376, (R)-2-(tert-butylamino)-1-(2-methyl-3-pyridyl)-1-ethanol]	> 75	25 to 50
COc1ccc(C[C@@H]2CC[C@H]([C@@H](O)c3cncc(F)c3)N2)cc1 [Compound 377, (S)-{(2R,5S)-5-[(p-methoxyphenyl)methyl]-2-pyrrolidinyl}(5-fluoro-3-pyridyl)methanol]	> 75	< 25
COc1ccc(C[C@@H]2CC[C@H]([C@H](O)c3cncc(F)c3)N2)cc1 [Compound 378, (R)-{(2R,5S)-5-[(p-methoxyphenyl)methyl]-2-pyrrolidinyl}(5-fluoro-3-pyridyl)methanol]	> 75	< 25
COc1ccc(C[C@H]2CC[C@H]([C@H](O)c3cncc(F)c3)N2)cc1 [Compound 379, (R)-{(2R,5R)-5-[(p-methoxyphenyl)methyl]-2-pyrrolidinyl}(5-fluoro-3-pyridyl)methanol]	> 75	< 25
COc1ccc(C[C@H]2CC[C@H]([C@@H](O)c3cncc(F)c3)N2)cc1 [Compound 380, (S)-{(2R,5R)-5-[(p-methoxyphenyl)methyl]-2-pyrrolidinyl}(5-fluoro-3-pyridyl)methanol]	> 75	< 25
CC(C)(NC[C@H](O)c1cccc(F)c1)[C@H]1CC[C@H](N)CC1 [Compound 381, (R)-1-(m-fluorophenyl)-2-{1-methyl-1-[(1r,4R)-4-aminocyclohexyl]ethylamino}-1-ethanol]	50 to 75	< 25
CC(C)(C[C@H]1CC[C@H](NS(C)(=O)=O)CC1)NC[C@H](O)c1cccc(F)c1 [Compound 382, (R)-2-{1,1-dimethyl-2-[(1r,4R)-4-(mesylamino)cyclohexyl]ethylamino}-1-(m-fluorophenyl)-1-ethanol]	> 75	25 to 50
CC(=O)N[C@H]1CC[C@H](CC(C)(C)NC[C@H](O)c2cccc(F)c2)CC1 [Compound 383, N-[(1R,4r)-4-{2-[(R)-2-(m-fluorophenyl)-2-hydroxyethylamino]-2-methylpropyl}cyclohexyl]acetamide]	> 75	25 to 50
CC(C)(C[C@H]1CC[C@H](NC(=O)c2ccccc2)CC1)NC[C@H](O)c1cccc(F)c1 [Compound 384, N-[(1R,4r)-4-{2-[(R)-2-(m-fluorophenyl)-2-hydroxyethylamino]-2-methylpropyl}cyclohexyl]benzamide]	> 75	> 75
CC(C)(NC[C@H](O)c1cccc(F)c1)[C@H]1CC[C@H](NS(C)(=O)=O)CC1 [Compound 385, (R)-1-(m-fluorophenyl)-2-{1-methyl-1-[(1r,4R)-4-(mesylamino)cyclohexyl]ethylamino}-1-ethanol]	50 to 75	< 25
CC(=O)N[C@H]1CC[C@H](C(C)(C)NC[C@H](O)c2cccc(F)c2)CC1 [Compound 386, N-[(1R,4r)-4-{1-[(R)-2-(m-fluorophenyl)-2-hydroxyethylamino]-1-methylethyl}cyclohexyl]acetamide]	> 75	< 25
CC(C)(C)NC[C@H](O)c1cccc(C#N)n1 [Compound 387, 6-[(S)-2-(tert-butylamino)-1-hydroxyethyl]-2-pyridinecarbonitrile]	> 75	25 to 50

Structure (SMILES)	Emax at 10 µM [1] [%]	Emax at 10 µM [2] [%]
O[C@H](c1cccc(F)c1)C12CCC(Cc3ccccc3)(CC1)N2 [Compound 388, (R)-(4-benzyl-7-azabicyclo[2.2.1]hept-1-yl)(m-fluorophenyl)methanol]	> 75	25 to 50
O[C@@H](c1cccc(F)c1)C12CCC(Cc3ccccc3)(CC1)N2 [Compound 389, (S)-(4-benzyl-7-azabicyclo[2.2.1]hept-1-yl)(m-fluorophenyl)methanol]	50 to 75	< 25
CC(C)(NC[C@H](O)c1cncc(F)c1)[C@H]1CC[C@H](C(=O)O)CC1 [Compound 390, (1R,4r)-8-[(R)-2-(5-fluoro-3-pyridyl)-2-hydroxyethylamino]-7-hydroxy-p-menthan-7-one]	50 to 75	< 25
O[C@@H](c1cccc(F)c1)[C@H]1CC[C@@H](Cc2ccc(Cl)cc2)N1 [Compound 391, (S)-{(2R,5S)-5-[(p-chlorophenyl)methyl]-2-pyrrolidinyl}(m-fluorophenyl)methanol]	50 to 75	< 25
O[C@H](c1cccc(F)c1)[C@H]1CC[C@@H](Cc2ccc(Cl)cc2)N1 [Compound 392, (R)-{(2R,5S)-5-[(p-chlorophenyl)methyl]-2-pyrrolidinyl}(m-fluorophenyl)methanol]	> 75	< 25
O[C@H](c1cccc(F)c1)[C@H]1CC[C@H](Cc2ccc(Cl)cc2)N1 [Compound 393, (R)-{(2R,5R)-5-[(p-chlorophenyl)methyl]-2-pyrrolidinyl}(m-fluorophenyl)methanol]	> 75	< 25
O[C@@H](c1cccc(F)c1)[C@H]1CC[C@H](Cc2ccc(Cl)cc2)N1 [Compound 394, (S)-{(2R,5R)-5-[(p-chlorophenyl)methyl]-2-pyrrolidinyl}(m-fluorophenyl)methanol]	50 to 75	< 25
O[C@@H](c1cccc(F)c1)C12CCC(COCc3ccc(Cl)cc3)(CC1)N2 [Compound 395, (S)-(4-{[(p-chlorophenyl)methoxy]methyl}-7-azabicyclo[2.2.1]hept-1-yl)(m-fluorophenyl)methanol]	50 to 75	< 25
O[C@H](c1cccc(F)c1)C12CCC(COCc3ccc(Cl)cc3)(CC1)N2 [Compound 396, (R)-(4-{[(p-chlorophenyl)methoxy]methyl}-7-azabicyclo[2.2.1]hept-1-yl)(m-fluorophenyl)methanol]	> 75	< 25
CC(C)(C)NC[C@H](O)c1cccc(C(F)(F)F)n1 [Compound 397, (S)-2-(tert-butylamino)-1-[6-(trifluoromethyl)-2-pyridyl]-1-ethanol]	> 75	< 25
CCOC(=O)CO[C@H]1CC[C@H](C(C)(C)NC[C@H](O)c2cccc(F)c2)CC1 [Compound 398, ethyl[(1R,4r)-4-{1-[(R)-2-(m-fluorophenyl)-2-hydroxyethylamino]-1-methylethyl}cycloehxyloxy]acetate]	> 75	< 25
CC(C)(C[C@H]1CC[C@@H](C#N)CC1)NC[C@H](O)c1cccc(F)c1 [Compound 399, (1S,4s)-4-{2-[(R)-2-(m-fluorophenyl)-2-hydroxyethylamino]-2-methylpropyl)cyclohexanecarbonitrile]	> 75	25 to 50
COc1ccc(CC23CCC([C@@H](O)c4cccc(F)c4)(CC2)N3)cc1 [Compound 400, (S)-(m-fluorophenyl)(4-[(p-methoxyphenyl)methyl]-7-azabicyclo[2.2.1]hept-1-yl}methanol]	50 to 75	< 25
COc1ccc(CC23CCC([C@H](O)c4cccc(F)c4)(CC2)N3)cc1 [Compound 401, (R)-(m-fluorophenyl){4-[(p-methoxyphenyl)methyl]-7-azabicyclo[2.2.1]hept-1-yl}methanol]	> 75	< 25
CC(C)(NC[C@H](O)c1cccc(F)c1)[C@H]1CC[C@H](OCC(=O)O)CC1 [Compound 402, [(1R,r)-4-{1-[(R)-2-(m-fluorophenyl)-2-hydroxyethylamino]-1-methylethyl}cyclohexyloxy]acetic acid]	50 to 75	< 25
O[C@@H](c1cncc(F)c1)[C@H]1CC[C@@H](Cc2ccc(Cl)cc2)N1 [Compound 403, (S)-{(2R,5S)-5-[(p-chlorophenyl)methyl]-2-pyrroldiinyl}(5-fluoro-3-pyridyl)methanol]	50 to 75	< 25

— patent US20260256751A1, “COMBINATION OF BETA-2-ADRENERGIC RECEPTOR AGONISTS AND GLP-1 RECEPTOR AGONISTS FOR USE IN TREATING HYPERGLYCAEMIA” (ATROGI AB, priority 2023, published 2026)
